Measured values taken from US7304058B2, “Carbamic acid esters of benzothiazoles” (Hoffmann-La Roche Inc., priority 2003, dated 2007).

How the values were obtained:
[1] = target: T1, human adenosine A2A receptor (Homo sapiens, UniProt P29274); assay: [3H]-SCH-58261 binding assay, human adenosine A2A receptor; settings: [3H]-SCH-58261 1 nM; membranes of CHO cells expressing the recombinant receptor; Ki by Cheng-Prussoff; read-out: hA2 (pKi) (converted)
T1 construct: expressed in transfected cells; host or cells: CHO cells, Semliki Forest virus expression system; membrane preparation
Description: Human Adenosine A2A Receptor
The human adenosine A2A receptor was recombinantly expressed in Chinese hamster ovary (CHO) cells using the semliki forest virus expression system. Cells were harvested, washed twice by centrifugation, homogenized and again washed by centrifugation. The final washed membrane pellet was suspended in a Tris (50 mM) buffer containing 120 mM NaCl, 5 mM KCl, 2 mM CaCl2 and 10 mM MgCl2 (pH 7.4) (buffer A). The [^3H]-SCH-58261 (Dionisotti et al., 1997, Br J Pharmacol 121, 353; 1 nM) binding assay was carried out in 96-well plates in the presence of 2.5 μg of membrane protein, 0.5 mg of Ysi-poly-1-lysine SPA beads and 0.1 U adenosine deaminase in a final volume of 200 μl of buffer A. Non-specific binding was defined using xanthine amine congener (XAC; 2 μM). Compounds were tested at 10 concentrations from 10 μM-0.3 nM. All assays were conducted in duplicate and repeated at least two times. Assay plates were incubated for 1 hour at room temperature before centrifugation and then bound ligand determined using a Packard Topcount scintillation counter. IC50 values were calculated using a non-linear curve fitting program and Ki values calculated using the Cheng-Prussoff equation.

T1 sequence (P29274 whole entry): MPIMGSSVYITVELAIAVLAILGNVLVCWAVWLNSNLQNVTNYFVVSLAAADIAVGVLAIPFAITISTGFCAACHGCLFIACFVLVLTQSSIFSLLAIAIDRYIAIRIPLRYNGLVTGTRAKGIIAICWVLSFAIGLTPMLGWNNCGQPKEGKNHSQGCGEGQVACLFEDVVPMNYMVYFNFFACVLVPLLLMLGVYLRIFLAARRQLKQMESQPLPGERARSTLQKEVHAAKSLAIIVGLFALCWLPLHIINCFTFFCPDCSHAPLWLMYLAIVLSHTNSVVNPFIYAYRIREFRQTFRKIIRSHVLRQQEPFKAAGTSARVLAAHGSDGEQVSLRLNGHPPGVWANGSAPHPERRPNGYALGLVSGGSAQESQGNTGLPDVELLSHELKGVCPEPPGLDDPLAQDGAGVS

Row | Ki [1] [nM] | melting point [°C] | SMILES
1 | 15.8 | 188 to 189 | COc1ccc(N2CCOCC2)c2sc(NC(=O)OC3CCC(O)C3)nc12 (mixture of isomers) [Example 11, (cis/trans)-(4-Methoxy-7-morpholin-4-yl-benzothiazol-2-yl)-carbamic acid 3-hydroxy-cyclopentyl ester]
2 | 3.98 | 193 to 194 | COc1ccc(N2CCOCC2)c2sc(NC(=O)OC3CC4CC3CC4O)nc12 (racemic) [Example 9, (rac)-(exo,exo)-(4-Methoxy-7-morpholin-4-yl-benzothiazol-2-yl)-carbamic acid 5-hydroxy-bicyclo[2.2.1]hept-2-yl ester]
3 | 2 | 282 to 284 | COc1ccc(C2CCOCC2)c2sc(NC(=O)O[C@H]3CC[C@H](O)CC3)nc12 [Example 1, (trans)-[4-Methoxy-7-(tetrahydro-pyran-4-yl)-benzothiazol-2-yl]-carbamic acid 4-hydroxy-cyclohexyl ester]
4 | 5.01 | 170 to 174 | CCOC(=O)Nc1nc2c(OC)ccc(C3CCOCC3)c2s1 [Example 2, [4-Methoxy-7-(tetrahydro-pyran-4-yl)-benzothiazol-2-yl]-carbamic acid ethyl ester]
5 | 12.6 | 149 to 152 | COCCOC(=O)Nc1nc2c(OC)ccc(N3CCOCC3)c2s1 [Example 3, (4-Methoxy-7-morpholin-4-yl-benzothiazol-2-yl)-carbamic acid 2-methoxy-ethyl ester]
6 | 25.1 | 164 to 168 | COc1ccc(N2CCOCC2)c2sc(NC(=O)OCC(C)C)nc12 [Example 4, (4-Methoxy-7-morpholin-4-yl-benzothiazol-2-yl)-carbamic acid isobutyl ester]
7 | 7.94 | 177 to 179 | COc1ccc(N2CCOCC2)c2sc(NC(=O)OC3CCCCC3)nc12 [Example 5, (4-Methoxy-7-morpholin-4-yl-benzothiazol-2-yl)-carbamic acid cyclohexyl ester]
8 | 6.31 | 176 to 179 | COc1ccc(N2CCOCC2)c2sc(NC(=O)O[C@H]3CC[C@H](O)CC3)nc12 [Example 6, (tran)s-(4-Methoxy-7-morpholin-4-yl-benzothiazol-2-yl)-carbamic acid 4-hydroxy-cyclohexyl ester]
9 | 10 | 204 to 206 | COc1ccc(N2CCOCC2)c2sc(NC(=O)O[C@H]3CC[C@@H](O)CC3)nc12 [Example 7, (cis)-(4-Methoxy-7-morpholin-4-yl-benzothiazol-2-yl)-carbamic acid 4-hydroxy-cydohexyl ester]
10 | 7.94 | 187 to 188 | COc1ccc(N2CCOCC2)c2sc(NC(=O)OC3CCOCC3)nc12 [Example 8, (4-Methoxy-7-morpholin-4-yl-benzothiazol-2-yl)-carbamic acid tetrahydro-pyran-4-yl ester]
11 | 25.1 | 198 to 200 | COc1ccc(N2CCOCC2)c2sc(NC(=O)O[C@@H]3CCOC3)nc12 [Example 10, (R)-(4-Methoxy-7-morpholin-4-yl-benzothiazol-2-yl)-carbamic acid tetrahydro-furan-3-yl ester]
12 | 12.6 | 175 to 180 | COc1ccc(C2CCOCC2)c2sc(NC(=O)OCC3CCCO3)nc12 (centres unmarked) [Example 12, [4-Methoxy-7-(tetrahydro-pyran-4-yl)-benzothiazol-2-yl]-carbamic acid tetrahydro-furan-2-ylmethyl ester]
13 | 3.98 | 195 to 200 | COc1ccc(C2CCOCC2)c2sc(NC(=O)O[C@H]3CCOC3)nc12 [Example 13, [4-Methoxy-7-(tetrahydro-pyran-4-yl)-benzothiazol-2-yl]-carbamic acid (S)-(tetrahydro-furan-3-yl) ester]
